The test system of test [1] is pERK (phospho-p44/42 ERK) in HCC827 cells. Put plainly: Cellular pERK Inhibition Assay, Method A (In-Cell Western). The conditions noted are these: Homo sapiens. The class given is cell-based. How it is done: Cellular pERK Inhibition Assay
pERK levels were determined using the In-Cell Western assay. HCC827 cells (ATCC, Manassas, USA) were seeded into 384-well plates at a density of 1×10^4 cells/well in RPMI1640 medium supplemented with 10% FBS and incubated 24h. Compounds were diluted first in DMSO and then into serum-free medium, before being added to cells in quadruplicate to give a final concentration of 0.2% DMSO. Plates were incubated at 37° C. for the indicated time in a humidified atmosphere of 5% CO2 in air.
Following compound treatment, cells were fixed with formalin neutral buffer solution for 20 minutes at room temperature. Plates were washed three times with 0.1% Triton-X in PBS and cells were blocked for 1 hour with Odyssey blocking buffer (LI-COR, #927-40000). After shaking out blocking buffer, cells were incubated with phospho-p44/42 ERK antibody (Cell Signalling Technology, #4370, 1:200) diluted in Odyssey blocking buffer at 4° C. overnight. Plates were washed again and cells were incubated for 1 hour with Goat anti-Rabbit […] (LI-COR, #926-32211, 1:800) diluted in Odyssey blocking buffer. After washing and removing wash solution completely using a centrifuge machine, cells were scanned on the Odyssey (LI-COR), following the manufacturer's instructions. The average signal from blank wells (no cells added) was subtracted from the signals from each sample well. Levels of pERK were then expressed as percent of control, using DMSO treated samples as control. The relative IC50 values were calculated in quadruplicate from the normalized dose-response plots using four parameter logistic curve fit. The Experiment for each compound was carried out in one time or multiple times, and the IC50 values were shown as a single value (for a compound measured in a single experiment) or an average value (for a compound measured in multiple experiments).

A further test concerns the target SHP2 (Homo sapiens (Human), UniProt Q06124). The experiment in a line: SHP2 Biochemical Assay (DiFMUP conversion, pIRS1-activated). How it is done: SHP2 activity was monitored by measuring the conversion of the surrogate substrate 6,8-difluoromethylumbelliferyl phosphate (DiFMUP) to the fluorescent product, 6,8-difluoromethylumbelliferone (DiFMU).
SHP2 was pre-incubated with test compounds and the activating peptide pIRS1 (H2N-LN(pY)IDLDLV-(PEG)8-LST(pY)ASINFQK-amide) for 30 min, prior to addition of the 6,8-difluoromethylumbelliferyl phosphate (DiFMUP), (Thermo Fisher D6567). Final assay concentrations were 10 pM SHP2, […] pIRS1 peptide, 50 μM DiFMUP, 25 mM Bis-Tris propane, pH 7.0, 150 mM NaCl, 0.05% (v/v) Tween-20, 0.5 mM TCEP and 5% (v/v) DMSO. Rates of reaction were then measured over 30 min by monitoring fluorescence on a BMG Pherastar reader at excitation 360 nm/emission 450 nm. IC50 values were calculated in singlicate from the normalized dose-response plots using four parameter logistic curve fit. The Experiment for each compound was carried out in one time or multiple times, and the IC50 values were shown as a single value (for a compound measured in a single experiment) or an average value (for a compound measured in multiple experiments).

Where [2] appears, read: Table 19, head prints unit as "-M", read-out: pERK (IC50) Method A.
Where [3] appears, read: Table 19, head prints unit as "-M".
[4] abbreviates: Table 20, read-out: pERK (IC50, μM) Method A.

Read-outs that look alike come from different tables or passages of the source.

Sequence of SHP2 (Q06124 whole entry): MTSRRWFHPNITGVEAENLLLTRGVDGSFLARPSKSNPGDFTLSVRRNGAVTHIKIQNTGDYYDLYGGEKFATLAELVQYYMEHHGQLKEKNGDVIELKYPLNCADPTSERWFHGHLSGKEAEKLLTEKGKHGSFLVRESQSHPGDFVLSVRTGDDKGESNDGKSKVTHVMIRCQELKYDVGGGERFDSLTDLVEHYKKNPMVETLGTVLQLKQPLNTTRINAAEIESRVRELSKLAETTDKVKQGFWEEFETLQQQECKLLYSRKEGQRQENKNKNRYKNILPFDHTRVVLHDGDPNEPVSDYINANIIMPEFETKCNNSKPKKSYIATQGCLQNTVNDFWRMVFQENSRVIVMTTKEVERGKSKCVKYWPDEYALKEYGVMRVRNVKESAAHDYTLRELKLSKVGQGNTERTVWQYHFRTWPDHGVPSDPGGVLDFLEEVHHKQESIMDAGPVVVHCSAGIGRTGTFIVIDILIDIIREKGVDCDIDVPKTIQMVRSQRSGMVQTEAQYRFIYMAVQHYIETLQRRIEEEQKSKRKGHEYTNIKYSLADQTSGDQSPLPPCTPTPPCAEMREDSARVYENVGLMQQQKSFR

On to `Cn1nc2ccc(-c3n[nH]c4nc(N5[C@H]6CC[C@@H]5[C@H](N)C6)n(C)c(=O)c34)c(Cl)c2c1Cl` [Example 114, 6-((1R,2R,4S)-2-amino-7-azabicyclo[2.2.1]heptan-7-yl)-3-(3,4-dichloro-2-methyl-2H-indazol-5-yl)-5-methyl-1,5-dihydro-4H-pyrazolo[3,4-d]pyrimidin-4-one], for which the IC50 was found to be 0.073 µM in test [1] (setting [2]) and 5.5 nM against SHP2 (setting [3]).

`Cn1cc2c(Cl)c(-c3c[nH]c4nc(N5CC[C@@H](CN)C5)n(C)c(=O)c34)ccc2n1` [Example 63, (S)-2-(3-(aminomethyl)pyrrolidin-1-yl)-5-(4-chloro-2-methyl-2H-indazol-5-yl)-3-methyl-3,7-dihydro-4H-pyrrolo[2,3-d]pyrimidin-4-one]: the values for the IC50 (in test [1] (setting [2]); against SHP2 (setting [3])) were 4.3 µM and 110 nM, respectively.

`CCn1nc2ccc(-c3c[nH]c4nc(N5[C@H]6CC[C@@H]5[C@H](N)C6)n(C)c(=O)c34)c(Cl)c2c1C(F)F` [Example 109, 2-((1R,2R,4S)-2-amino-7-azabicyclo[2.2.1]heptan-7-yl)-5-(4-chloro-3-(difluoromethyl)-2-ethyl-2H-indazol-5-yl)-3-methyl-3,7-dihydro-4H-pyrrolo[2,3-d]pyrimidin-4-one]: the IC50 in test [1] (setting [2]) was found to be 0.12 µM; against SHP2 (setting [3]), 6.5 nM.

As to `Cn1nc2ccc(-c3n[nH]c4nc(N5[C@H]6CC[C@@H]5[C@](C)(N)C6)n(C)c(=O)c34)c(Cl)c2c1Cl` (racemic) [Example 175, rac-6-((1R,2R,4S)-2-amino-2-methyl-7-azabicyclo[2.2.1]heptan-7-yl)-3-(3,4-dichloro-2-methyl-2H-indazol-5-yl)-5-methyl-1,5-dihydro-4H-pyrazolo[3,4-d]pyrimidin-4-one], the IC50 in test [1] (setting [4]) was found to be 0.22 µM; on SHP2 (Table 20), 12 nM.

Consider `CCn1cc2c(Cl)c(-c3n[nH]c4nc(N5[C@@H]6CC[C@H]5C[C@@](C)(N)C6)n(C)c(=O)c34)ccc2n1` [Example 115, 6-(endo-3-amino-3-methyl-8-azabicyclo[3.2.1]octan-8-yl)-3-(4-chloro-2-ethyl-2H-indazol-5-yl)-5-methyl-1,5-dihydro-4H-pyrazolo[3,4-d]pyrimidin-4-one], for which the IC50 was determined as 0.49 µM in test [1] (setting [2]) and 46 nM on SHP2 (setting [3]).

In the case of `Cn1c(N2[C@@H]3CC[C@H]2C[C@@H](N)C3)nc2[nH]cc(-c3ccc4nccnc4c3Cl)c2c1=O` [Example 176, 2-(endo-3-amino-8-azabicyclo[3.2.1]octan-8-yl)-5-(5-chloroquinoxalin-6-yl)-3-methyl-3,7-dihydro-4H-pyrrolo[2,3-d]pyrimidin-4-one], the IC50 in test [1] (setting [4]) was determined as 0.66 µM; against SHP2 (Table 20) it was 77 nM.

For `CN(C)C(=O)CCn1nc2ccc(-c3c[nH]c4nc(N5C6CCCC5CNC6)n(C)c(=O)c34)c(Cl)c2c1Cl` [Example 83, 3-(5-(2-(3,9-diazabicyclo[3.3.1]nonan-9-yl)-3-methyl-4-oxo-4,7-dihydro-3H-pyrrolo[2,3-d]pyrimidin-5-yl)-3,4-dichloro-2H-indazol-2-yl)-N,N-dimethylpropanamide], the IC50 turned out to be 0.19 µM in test [1] (setting [2]) and 11 nM at SHP2 (setting [3]).

As to `Cn1cc2c(Cl)c(-c3c[nH]c4nc(N5[C@H]6CC[C@@H]5[C@H](N)C6)n(C)c(=O)c34)ccc2n1` [Example 49, 2-((1R,2R,4S)-2-amino-7-azabicyclo[2.2.1]heptan-7-yl)-5-(4-chloro-2-methyl-2H-indazol-5-yl)-3-methyl-3,7-dihydro-4H-pyrrolo[2,3-d]pyrimidin-4-one], the figures for the IC50 (in test [1] (setting [2]); on SHP2 (setting [3])) were 0.021 µM and 4.5 nM, respectively.

`CC(C)N[C@@H]1C[C@@H]2CC[C@H]1N2c1nc2[nH]nc(-c3ccc4nn(C)c(Cl)c4c3Cl)c2c(=O)n1C` [Example 179, 3-(3,4-Dichloro-2-methyl-2H-indazol-5-yl)-6-((1R,2R,4S)-2-(isopropylamino)-7-azabicyclo[2.2.1]heptan-7-yl)-5-methyl-1,5-dihydro-4H-pyrazolo[3,4-d]pyrimidin-4-one]: the IC50 was 2.1 µM in test [1] (setting [4]) and 150 nM on SHP2 (Table 20).

In the case of `CN[C@H]1[C@H]2CC[C@@H]1N(c1nc3[nH]cc(-c4ccc5nn(C)cc5c4Cl)c3c(=O)n1C)C2` (racemic) [Example 135, rac-5-(4-chloro-2-methyl-2H-indazol-5-yl)-3-methyl-2-((1S,4S,7S)-7-(methylamino)-2-azabicyclo[2.2.1]heptan-2-yl)-3,7-dihydro-4H-pyrrolo[2,3-d]pyrimidin-4-one], the results for the IC50 (in test [1] (setting [2]); on SHP2 (setting [3])) were 0.95 µM and 48 nM, respectively.

`Cn1cc2c(Cl)c(-c3c[nH]c4nc(N5CC6CCCC(C5)N6)n(C)c(=O)c34)ccc2n1` [Example 30, 2-(3,9-diazabicyclo[3.3.1]nonan-3-yl)-5-(4-chloro-2-methyl-2H-indazol-5-yl)-3-methyl-3,7-dihydro-4H-pyrrolo[2,3-d]pyrimidin-4-one]: the IC50 was determined as 0.22 µM in test [1] (setting [2]) and 9.7 nM against SHP2 (setting [3]).

Consider `Cn1nc2ccc(-c3c[nH]c4nc(N5C6CCCC5CNC6)n(C)c(=O)c34)c(Cl)c2c1Cl` [Example 99, 2-(3,9-diazabicyclo[3.3.1]nonan-9-yl)-5-(3,4-dichloro-2-methyl-2H-indazol-5-yl)-3-methyl-3,7-dihydro-4H-pyrrolo[2,3-d]pyrimidin-4-one], for which the figures for the IC50 (in test [1] (setting [2]); on SHP2 (setting [3])) were 0.057 µM and 4.5 nM, respectively.

As for `Cn1cc2c(Cl)c(-c3c[nH]c4nc(N5C[C@@H]6C[C@H]5CN6)n(C)c(=O)c34)ccc2n1` [Example 21, 2-((1S,4S)-2,5-diazabicyclo[2.2.1]heptan-2-yl)-5-(4-chloro-2-methyl-2H-indazol-5-yl)-3-methyl-3,7-dihydro-4H-pyrrolo[2,3-d]pyrimidin-4-one], the figures for the 50% inhibitory concentration (IC50) (in test [1] (setting [2]); against SHP2 (setting [3])) were 0.32 µM and 11 nM, respectively.

For `Cn1cc2c(Cl)c(-c3c[nH]c4nc(N5C6COCC5CC(N)C6)n(C)c(=O)c34)ccc2n1` (stereo not shown) [Example 22, 2-(7-amino-3-oxa-9-azabicyclo[3.3.1]nonan-9-yl)-5-(4-chloro-2-methyl-2H-indazol-5-yl)-3-methyl-3,7-dihydro-4H-pyrrolo[2,3-d]pyrimidin-4-one], the IC50 in test [1] (setting [2]) was determined as 2.2 µM; against SHP2 (setting [3]), 14 nM.

Regarding `CCn1cc2c(Cl)c(-c3c[nH]c4nc(N5C6CCC5CNC6)n(C)c(=O)c34)ccc2n1` [Example 91, 2-(3,8-diazabicyclo[3.2.1]octan-8-yl)-5-(4-chloro-2-ethyl-2H-indazol-5-yl)-3-methyl-3,7-dihydro-4H-pyrrolo[2,3-d]pyrimidin-4-one], the values for the IC50 (in test [1] (setting [2]); on SHP2 (setting [3])) were 0.34 µM and 12 nM, respectively.

On to `CCn1cc2c(Cl)c(-c3c[nH]c4nc(N5[C@@H]6CC[C@H]5C[C@H](N)C6)n(C)c(=O)c34)ccc2n1` [Example 4, 2-(exo-3-amino-8-azabicyclo[3.2.1]octan-8-yl)-5-(4-chloro-2-ethyl-2H-indazol-5-yl)-3-methyl-3,7-dihydro-4H-pyrrolo[2,3-d]pyrimidin-4-one], for which the IC50 in test [1] (setting [2]) came to 0.12 µM; against SHP2 (setting [3]), 7.5 nM.

For `Cn1cc2c(Cl)c(-c3c[nH]c4nc(N5CC[C@@](C)(N)C5)n(C)c(=O)c34)ccc2n1` [Example 55, (R)-2-(3-amino-3-methylpyrrolidin-1-yl)-5-(4-chloro-2-methyl-2H-indazol-5-yl)-3-methyl-3,7-dihydro-4H-pyrrolo[2,3-d]pyrimidin-4-one], the IC50 in test [1] (setting [2]) stood at 1.1 µM; against SHP2 (setting [3]) it was 74 nM.

Consider `CCN[C@@H]1C[C@@H]2CC[C@H]1N2c1nc2[nH]nc(-c3ccc4nn(C)c(Cl)c4c3Cl)c2c(=O)n1C` [Example 177, 3-(3,4-dichloro-2-methyl-2H-indazol-5-yl)-6-((1R,2R,4S)-2-(ethylamino)-7-azabicyclo[2.2.1]heptan-7-yl)-5-methyl-1,5-dihydro-4H-pyrazolo[3,4-d]pyrimidin-4-one], for which the IC50 in test [1] (setting [4]) came to 1.4 µM; against SHP2 (Table 20) it was 95 nM.

In the case of `Cn1nc2ccc(-c3n[nH]c4nc(N5C[C@H]6CC[C@@H]5[C@@H]6N)n(C)c(=O)c34)c(Cl)c2c1Cl` [Example 171, 6-((1R,4R,7R)-7-amino-2-azabicyclo[2.2.1]heptan-2-yl)-3-(3,4-dichloro-2-methyl-2H-indazol-5-yl)-5-methyl-1,5-dihydro-4H-pyrazolo[3,4-d]pyrimidin-4-one], the IC50 in test [1] (setting [4]) worked out at 0.02 µM.

As a reminder, the IC50 is the concentration at which inhibition is half-maximal.
